SMILES strings stand for the structures.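 How tested: cells in 96-well plates exposed to compound for 48 hours at five concentrations. Here, GI50 denotes the concentration required for 50% inhibition of growth.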 The source made the active and inactive calls. Cut-off read from the data, not from the text of the source: active = GI50 up to about 1.1 µM and inactive = higher.

Some test systems named below: SK-MEL-5; RPMI-8226; UO-31; Malme-3M; OVCAR-5; COLO 205; A549; SK-MEL-28; NCI-H522; SK-OV-3; MOLT-4; KM12; UACC-62; NCI-H23; LOX IMVI; SN12C.
Experiment in all cases: NCI tumour cell line growth inhibition, 48 h

For `Nc1ccc(C(=O)NN2C(=O)C(Cl)C2c2ccccc2Cl)cc1` (stereo unspecified), the GI50 with SK-MEL-5 is 16 µM (inactive); in the assay with RPMI-8226, 6.25 µM (inactive); in the assay on UO-31, 17 µM (inactive); in the assay on Malme-3M, 17.6 µM (inactive); with OVCAR-5, 15.2 µM (inactive); with COLO 205 it was 14.6 µM (inactive). For the same compound, the GI50 in the assay on A549 is 14.3 µM (inactive); in the assay with SK-MEL-28 it was 14.8 µM (inactive); in the assay with NCI-H522, 1.71 µM (inactive); in the assay on SK-OV-3, 16.1 µM (inactive); with MOLT-4, 1.59 µM (inactive); in the assay with KM12, 12.1 µM (inactive). Also, the GI50 in the assay with UACC-62 was 8.69 µM (inactive); in the assay with NCI-H23 it was 12.3 µM (inactive); in the assay with LOX IMVI, 1.41 µM (inactive).
Turning to `N#CC(c1ccc(Cl)cc1)c1cccc(C(C#N)c2ccc(Cl)cc2)n1` (stereo unspecified), the GI50 with RPMI-8226 was 82 µM (inactive); in the assay with UO-31 it was 4.65 µM (inactive); in the assay with Malme-3M, 30.6 µM (inactive); in the assay on OVCAR-5 it was > 100 µM (inactive); in the assay with COLO 205 it was 14.4 µM (inactive); in the assay with A549, 10.6 µM (inactive). Also, the GI50 is 17 µM (inactive) in the assay with SK-MEL-28; 17.6 µM (inactive) with NCI-H522; 47.4 µM (inactive) in the assay on SK-OV-3; 8.02 µM (inactive) in the assay with MOLT-4; 17.6 µM (inactive) in the assay on KM12; 59.3 µM (inactive) in the assay with SN12C. In addition, the GI50 in the assay with UACC-62 is 14 µM (inactive); in the assay on NCI-H23 it was 3.95 µM (inactive).
For the compound `N#Cc1cn(-c2c3ccccc3nc3ccccc23)c(=O)[nH]c1=O`, the GI50 with RPMI-8226 was 14 µM (inactive); in the assay with UO-31 it was 3.8 µM (inactive); in the assay with Malme-3M it was 10.7 µM (inactive); in the assay on OVCAR-5, 13.8 µM (inactive); with COLO 205 it was 5.43 µM (inactive); with A549, 4.56 µM (inactive). The GI50 with SK-MEL-28 is 16.8 µM (inactive); with NCI-H522 it was 4.03 µM (inactive); with SK-OV-3, 3.6 µM (inactive); in the assay with MOLT-4, 4.15 µM (inactive); with KM12, 7.16 µM (inactive); with UACC-62 it was 15.8 µM (inactive). The GI50 with NCI-H23 is > 10 µM (inactive); in the assay on LOX IMVI, 5.12 µM (inactive).
Turning to `C[C@@H](c1ccccc1)N(CC#N)C1CCC[C@H]1O` (stereo partly specified), the GI50 with SK-MEL-5, in the assay with RPMI-8226, with UO-31, in the assay with Malme-3M, in the assay with COLO 205 and in the assay with A549 was > 100 µM (inactive) throughout. The GI50 in the assay with SK-MEL-28, in the assay with NCI-H522, in the assay with SK-OV-3, in the assay with MOLT-4, with KM12 and in the assay on SN12C was > 100 µM (inactive) throughout. In addition, the GI50 in the assay with UACC-62, in the assay with NCI-H23 and in the assay on LOX IMVI was > 100 µM (inactive) each time.
Take `Cc1ccc(-c2nnc(-c3nn(-c4ccccc4)c4nc5ccccc5nc34)o2)cc1`: the GI50 was 10.9 µM (inactive) with SK-MEL-5; 8.38 µM (inactive) in the assay on RPMI-8226; 20.4 µM (inactive) in the assay with UO-31; > 100 µM (inactive) in the assay on OVCAR-5; 47.2 µM (inactive) in the assay with COLO 205; 13.3 µM (inactive) in the assay with A549. Besides, the GI50 in the assay on SK-MEL-28 is 26.6 µM (inactive); with NCI-H522, 17.9 µM (inactive); with SK-OV-3, 10.8 µM (inactive); in the assay on MOLT-4, 16 µM (inactive); in the assay on KM12, 17.8 µM (inactive); with SN12C, 22.4 µM (inactive). The GI50 in the assay on UACC-62 was 14.2 µM (inactive); in the assay on NCI-H23, 14 µM (inactive); with LOX IMVI, 15.7 µM (inactive).
In the case of `O=C1N(c2ccccc2)C(=O)C2(SC=NN2Cc2ccccc2)N1c1ccccc1` (stereo unspecified), the GI50 in the assay on SK-MEL-5, in the assay on UO-31, in the assay on Malme-3M, in the assay on COLO 205, with A549 and in the assay with SK-MEL-28 was > 100 µM (inactive) each time. The GI50 in the assay with NCI-H522, in the assay on SK-OV-3, in the assay on MOLT-4, in the assay with KM12, in the assay with SN12C and in the assay with UACC-62 was > 100 µM (inactive) throughout. For the same compound, the GI50 with NCI-H23 and with LOX IMVI was > 100 µM (inactive) each time.
Consider `CC(=O)c1cccc(NCn2nnc3ccccc32)c1`, for which the GI50 with RPMI-8226 was 96.8 µM (inactive); in the assay with UO-31 it was > 100 µM (inactive); in the assay with Malme-3M, > 100 µM (inactive); with COLO 205, > 100 µM (inactive); in the assay on A549 it was > 100 µM (inactive); in the assay with SK-MEL-28, > 100 µM (inactive). Besides, the GI50 in the assay with NCI-H522, in the assay with SK-OV-3, in the assay with MOLT-4, with KM12, in the assay with SN12C and in the assay on UACC-62 was > 100 µM (inactive) each time. Also, the GI50 in the assay with NCI-H23 and with LOX IMVI was > 100 µM (inactive) each time.
In the case of `COC(=O)C1=C(O)c2cc(OC)c(OC)cc2C(c2ccc(OC)c(OC)c2)C1` (stereo unspecified), the GI50 in the assay on SK-MEL-5 is > 100 µM (inactive); with RPMI-8226, > 100 µM (inactive); with UO-31, > 100 µM (inactive); in the assay on Malme-3M, > 100 µM (inactive); in the assay with OVCAR-5, > 100 µM (inactive); in the assay with COLO 205 it was 38.6 µM (inactive). Also, the GI50 was > 100 µM (inactive) with A549; > 100 µM (inactive) with SK-MEL-28; > 100 µM (inactive) in the assay on SK-OV-3; 88.5 µM (inactive) in the assay on MOLT-4; 76.9 µM (inactive) with KM12; 51.2 µM (inactive) in the assay on SN12C. The GI50 is 99.8 µM (inactive) with UACC-62, > 100 µM (inactive) with NCI-H23 and 69.5 µM (inactive) in the assay with LOX IMVI.
Consider `C[C@@]12CCCC(=O)N1[C@@H](CO)C(c1ccccc1)O2` (stereo partly specified), for which the GI50 in the assay on SK-MEL-5, with RPMI-8226, in the assay with Malme-3M, in the assay on OVCAR-5, with COLO 205 and in the assay with A549 was > 100 µM (inactive) throughout. Moreover, the GI50 with SK-MEL-28, with KM12, in the assay with SN12C, with UACC-62, with NCI-H23 and in the assay with LOX IMVI was > 100 µM (inactive) throughout.
Consider `CC#C[I+]c1ccccc1`, for which the GI50 in the assay with SK-MEL-5 was 23.4 µM (inactive); in the assay with UO-31 it was 30.3 µM (inactive); in the assay on Malme-3M, 18.9 µM (inactive); with OVCAR-5, 32.7 µM (inactive); in the assay on COLO 205, 12.9 µM (inactive); in the assay with A549 it was 63.8 µM (inactive). In addition, the GI50 is 23.6 µM (inactive) in the assay on SK-MEL-28; 3.05 µM (inactive) in the assay on NCI-H522; 30.3 µM (inactive) in the assay with SK-OV-3; 12.1 µM (inactive) with MOLT-4; 16.5 µM (inactive) with KM12; 12.3 µM (inactive) in the assay on SN12C. Further, the GI50 is 22.3 µM (inactive) in the assay with UACC-62, 18.1 µM (inactive) in the assay on NCI-H23 and 13.8 µM (inactive) in the assay on LOX IMVI.
With `CC#C[P+](c1ccccc1)(c1ccccc1)c1ccccc1`, the GI50 is 2.2 µM (inactive) in the assay on SK-MEL-5; 7.41 µM (inactive) in the assay with UO-31; 10.4 µM (inactive) in the assay on Malme-3M; 8.55 µM (inactive) in the assay on OVCAR-5; 1.35 µM (inactive) in the assay with COLO 205; 7.91 µM (inactive) with A549. The GI50 in the assay with SK-MEL-28 was 12.2 µM (inactive); in the assay on NCI-H522, 0.284 µM (active); with SK-OV-3, 14.6 µM (inactive); in the assay on MOLT-4, 0.953 µM (active); in the assay with KM12, 2.88 µM (inactive); in the assay on SN12C, 1.12 µM (inactive). Besides, the GI50 in the assay on UACC-62 is 3.72 µM (inactive); in the assay on NCI-H23, 2.06 µM (inactive); in the assay on LOX IMVI it was 2 µM (inactive).
With `CCO/C=C1\N=C(C(Cl)c2ccccc2)OC1=O` (stereo unspecified), the GI50 with SK-MEL-5, in the assay with RPMI-8226, in the assay on UO-31, with Malme-3M, with OVCAR-5 and with COLO 205 was > 100 µM (inactive) each time. The GI50 in the assay with A549, with SK-MEL-28, in the assay with NCI-H522, with MOLT-4, with KM12 and with SN12C was > 100 µM (inactive) throughout. In addition, the GI50 with UACC-62, with NCI-H23 and in the assay on LOX IMVI was > 100 µM (inactive) each time.
Consider `CC1(C)O[C@@H](CCl)C[C@@H](C#N)O1`, for which the GI50 in the assay with SK-MEL-5, in the assay with RPMI-8226, in the assay with UO-31, in the assay on Malme-3M, in the assay with OVCAR-5 and in the assay on COLO 205 was > 100 µM (inactive) in each case. The GI50 in the assay with A549, in the assay on SK-MEL-28, with NCI-H522, in the assay on SK-OV-3, with MOLT-4 and in the assay on KM12 was > 100 µM (inactive) throughout. Moreover, the GI50 with UACC-62, in the assay on NCI-H23 and in the assay with LOX IMVI was > 100 µM (inactive) each time.
Take `CNS(=O)(=O)NN(C)S(=O)(=O)c1ccc(OC)cc1`: the GI50 in the assay on SK-MEL-5, in the assay with RPMI-8226, with UO-31, in the assay with Malme-3M, in the assay on COLO 205 and with A549 was > 100 µM (inactive) in each case. Moreover, the GI50 with NCI-H522, in the assay with MOLT-4, with KM12, with SN12C, with UACC-62 and in the assay on NCI-H23 was > 100 µM (inactive) in each case. In the assay with LOX IMVI, the GI50 was 91.8 µM (inactive).

The values are drawn from ChEMBL document CHEMBL1201862, “PubChem BioAssay data set” (2004).
